Tested on: Caco-2 cell monolayers
Experiment: Permeability across Caco-2 cell monolayers
Assay type: in vitro ADME
Conditions: Caco-2 monolayers after exposure to test article, 37° C.
Description: To test the permeability of dietary fatty acids across Caco-2 cell monolayers, Caco-2 cell monolayers are grown to confluence on collagen-coated, microporous, polycarbonate membranes in 12-well Costar Transwell® plates.
The test article is the aqueous dietary fatty acids formulation, and the dosing concentration is 2 μM in the assay buffer (HBSSg) as in the previous example. Cell monolayers are dosed on the apical side (A-to-B) or basolateral side (B-to-A) and incubated at 37° C. with 5% CO2 in a humidified incubator. Samples are taken from the donor chamber at 120 minutes, and samples from the receiver chamber are collected at 60 and 120 minutes. Each determination is performed in duplicate. Lucifer yellow permeability is also measured for each monolayer after being subjected to the test article to ensure no damage is inflicted to the cell monolayers during the permeability experiment. Permeability of samples of atenolol, propranolol and digoxin are also measured to compare with the permeability of the dietary fatty acids sample. All samples are assayed for dietary fatty acids, or corresponding comparative compounds, by LC/MS/MS using electrospray ionization. The apparent permeability (Papp) and percent recovery are calculated as is known in the art. […]

Lucifer yellow
Papp (post-experiment monolayer integrity control): < 0.8 ×10⁻⁶ cm/s

Source: patent US20110054029A1, “WATER-SOLUBLE DIETARY FATTY ACIDS” (priority 2009, published 2011)
